Here are results for 18 compounds from patent US20250113823A1, “Arthropod Control Compositions” (priority 2022, published 2025).

For this experiment, the system named is Aedes aegypti. Nature of the experiment: Warm Body assay, mosquito landings on treated warm body. In kind it is in vivo. To be noted: for pest or weed control at 16 µg/mL / pest or weed control at 400 µg/mL / pest or weed control at 10000 µg/mL / pest or weed control at 1 % / pest or weed control at 0.0016 % / pest or weed control at 0.04 %: Aedes aegypti; for pest or weed control at 16 µg/mL / pest or weed control at 400 µg/mL / pest or weed control at 10000 µg/mL: read-out: Percentage of repellence of mosquitoes Aedes aegypti landing on the warm body; for pest or weed control at 1 % / mosquito landing within the two minutes of experiments: highest tested concentration, 1% (Table 3); for pest or weed control at 1 % / pest or weed control at 0.04 %: read-out: repellence; for pest or weed control at 0.0016 %: read-out: reduce the number of mosquito landings; for pest or weed control at 0.04 %: intermediate concentration of 0.04% (Table 3). Here is the method:
The arthropod controlling effect according to the present invention is determined on mosquitoes using an adapted Warm Body assay as defined in Kröber T, Kessler S, Frei J, Bourquin M, Guerin PM. An in vitro assay for testing mosquito controlling compounds employing a warm body and carbon dioxide as a behavioral activator. J Am Mosq Control Assoc. 2010; 26: 381-386. Further information is provided in the accompanying examples
The controlling effect, repellence & spatial repellence, according to the present invention is determined by testing the Warm Body assay against the yellow fever mosquito, Aedes aegypti Rockefeller strain. […] Observations of controlling efficacy were made on host-seeking females of uniform age, 5 to 10 days old selected as mentioned in the publication mentioned hereinabove. Tested hungry females had access to 10% sugar solution but were not blood-fed. Further information is provided in the accompanying examples.
The published protocol has been adapted in not manually counting the landing mosquitoes but automatically using an automatic counting software, the switch from Anopheles gambiae to A. aegypti led to a decrease of mosquitoes' number placed in the tested cage due to the size difference (i.e. 30 mosquitoes instead of 50) and to an increase of lighting as A. aegypti is a diurnal mosquitoes (i.e. 150 lux instead of 4 lux). Further information is provided in the accompanying examples. […]
The controlling effect according to the present invention was assessed using an adapted Warm Body assay as defined in Kröber T, Kessler S, Frei J, Bourquin M, Guerin P M. 2010. J Am Mosq Control Assoc. 26: 381-386. In this in-vitro assay the number of mosquito landing on a warm body, simulating an attractive host treated with the tested stimuli, was measured in order to assess the repellence effect.
The published protocol has been adapted as the switch from Anopheles gambiae to Aedes aegypti led to a decrease of mosquitoes placed in the tested cage due to the size difference (i.e. 30 mosquitoes instead of 50) and to an increase of lighting since A. aegypti is a diurnal mosquitoes (i.e. 150 lux instead of 4 lux).
On the sandblasted glass Petri dish covering the warm body (28.3 cm^2), 100 μL of the compounds diluted at different concentrations in ethanol was applied. The number of mosquito landing on the warm body was counted for each stimulus and pure ethanol (solvent) as control.

Where [1] appears, read: lowest concentration of 0.0016% (Table 3).

Like-named read-outs stand apart in the source and are kept apart here. Bounds are passed on as bounds.

As for `C=CCc1cc(OC)c(OC)c(OC)c1` [compound 1682, 1,2,3-trimethoxy-5-prop-2-enylbenzene], the pest or weed control at 1 % was over 90%. Besides, the pest or weed control at 16 µg/mL (0.016 mg/mL (Table 3)) was 0%. Further, under “0.4 mg/mL (Table 3)”, the pest or weed control at 400 µg/mL turned out to be 73%. Further, the pest or weed control at 10000 µg/mL (10 mg/mL (Table 3)) amounted to 90%.

Consider `COc1cc(C(=O)O)cc(OC)c1O` [compound 2270, 4-hydroxy-3,5-dimethoxybenzoic acid], for which the pest or weed control at 16 µg/mL (0.016 mg/mL (Table 3)) came out at 67%. In addition, the pest or weed control at 400 µg/mL (0.4 mg/mL (Table 3)) amounted to 62%. For the same compound, the pest or weed control at 10000 µg/mL (10 mg/mL (Table 3)) worked out at 87%. Further, under setting [1], the pest or weed control at 0.0016 % is over 50%.

Regarding `C=CC(C)CCCC(C)(C)OCC=Cc1ccc(O)c(OC)c1` (stereo not shown) [compound 1519, 4-{3-[(2,6-dimethyl-7-octen-2-yl)oxy]-1-propen-1-yl}-2-methoxyphenol], the pest or weed control at 1 % was over 90%. Also, the pest or weed control at 16 µg/mL (0.016 mg/mL (Table 3)) was found to be 67%. Also, the pest or weed control at 400 µg/mL (0.4 mg/mL (Table 3)) is 71%. Moreover, under “10 mg/mL (Table 3)”, the pest or weed control at 10000 µg/mL came out at 95%. Also, the pest or weed control at 0.0016 % under setting [1] is over 50%.

Regarding `COc1cc(CC(=O)O)ccc1O` [compound 1567, 2-(4-hydroxy-3-methoxyphenyl)acetic acid], the pest or weed control at 1 % is over 90%, the pest or weed control at 0.04 % is over 75% and the pest or weed control at 0.0016 % is over 50%. For the same compound, the pest or weed control at 16 µg/mL (0.016 mg/mL (Table 3)) was 54%. Besides, the pest or weed control at 400 µg/mL (0.4 mg/mL (Table 3)) amounted to 86%. For the same compound, for the setting “10 mg/mL (Table 3)”, the pest or weed control at 10000 µg/mL was found to be 98%.

With `COc1ccc(CCC(=O)O)cc1OC` [compound 1561, 3-(3,4-dimethoxyphenyl)propanoic acid], the pest or weed control at 16 µg/mL (0.016 mg/mL (Table 3)) worked out at 9%. The pest or weed control at 400 µg/mL (0.4 mg/mL (Table 3)) came to 37%. Besides, the pest or weed control at 10000 µg/mL (10 mg/mL (Table 3)) came out at 84%.

Consider `COc1cc(C=CC(=O)O)cc(OC)c1O` [compound 1553, 3-(4-hydroxy-3,5-dimethoxyphenyl)prop-2-enoic acid], for which the pest or weed control at 0.04 % is over 75%. For the same compound, the pest or weed control at 16 µg/mL (0.016 mg/mL (Table 3)) amounted to 60%. For the setting “0.4 mg/mL (Table 3)”, the pest or weed control at 400 µg/mL came to 85%. The pest or weed control at 10000 µg/mL (10 mg/mL (Table 3)) stood at 43%. Besides, the pest or weed control at 0.0016 % under setting [1] was over 50%.

For `COc1cccc(OC)c1OC` [compound 1822, 1,2,3-trimethoxybenzene], the pest or weed control at 1 % is over 90% and the “mosquito landing within the two minutes of experiments” value is on record as “protect the attractive stimulus for any mosquito landing”. Further, the pest or weed control at 16 µg/mL (0.016 mg/mL (Table 3)) worked out at 54%. Moreover, the pest or weed control at 400 µg/mL (0.4 mg/mL (Table 3)) was 39%. Besides, the pest or weed control at 10000 µg/mL (10 mg/mL (Table 3)) is 100%. Under setting [1], the pest or weed control at 0.0016 % is over 50%.

On to `CCc1cc(OC)c(O)c(OC)c1` [compound 2240, 4-ethyl-2,6-dimethoxyphenol], for which the pest or weed control at 1 % was over 90%. Moreover, the pest or weed control at 16 µg/mL (0.016 mg/mL (Table 3)) worked out at 0%. The pest or weed control at 400 µg/mL (0.4 mg/mL (Table 3)) stood at 47%. Also, the pest or weed control at 10000 µg/mL (10 mg/mL (Table 3)) amounted to 94%.

As for `CCOc1cc(C)ccc1O` [compound 1303, 2-ethoxy-4-methylphenol], the pest or weed control at 1 % was over 90% and the “mosquito landing within the two minutes of experiments” value is “protect the attractive stimulus for any mosquito landing”. Besides, the pest or weed control at 16 µg/mL (0.016 mg/mL (Table 3)) turned out to be 16%. The pest or weed control at 400 µg/mL (0.4 mg/mL (Table 3)) came to 21%. Moreover, where the note is “10 mg/mL (Table 3)”, the pest or weed control at 10000 µg/mL was 100%.

On to `CC=Cc1cc(OC)c(OC)c(OC)c1` [compound 1126, 1,2,3-trimethoxy-5-prop-1-enylbenzene], for which the pest or weed control at 1 % was over 90%. For the same compound, the pest or weed control at 16 µg/mL (0.016 mg/mL (Table 3)) stood at 31%. Besides, under “0.4 mg/mL (Table 3)”, the pest or weed control at 400 µg/mL worked out at 71%. Where the note is “10 mg/mL (Table 3)”, the pest or weed control at 10000 µg/mL came out at 90%.

On to `CCOc1cc(C=O)ccc1OC(=O)C(C)C` [compound 1469, (2-ethoxy-4-formylphenyl) 2-methylpropanoate], for which the pest or weed control at 1 % is over 90%. For the same compound, under “0.016 mg/mL (Table 3)”, the pest or weed control at 16 µg/mL is 64%. Also, the pest or weed control at 400 µg/mL (0.4 mg/mL (Table 3)) came to 65%. Besides, under “10 mg/mL (Table 3)”, the pest or weed control at 10000 µg/mL amounted to 95%. Moreover, under setting [1], the pest or weed control at 0.0016 % is over 50%.

Take `COc1ccc2ccc(=O)oc2c1O` [compound 1551, 8-hydroxy-7-methoxychromen-2-one]: the pest or weed control at 1 % is over 90%. In addition, the pest or weed control at 16 µg/mL (0.016 mg/mL (Table 3)) came out at 55%. For the same compound, where the note is “0.4 mg/mL (Table 3)”, the pest or weed control at 400 µg/mL amounted to 42%. Besides, the pest or weed control at 10000 µg/mL (10 mg/mL (Table 3)) amounted to 91%. In addition, the pest or weed control at 0.0016 % under setting [1] is over 50%.

For `CCCc1ccc2c(c1)OCC(=O)CO2` [compound 465, 7-propyl-1,5-benzoodioxepin-3-one], the “Percentage of repellence of mosquitoes Aedes aegypti landing on the warm body” value (“Percentage” for short) (0.016 mg/mL (Table 3)) is given as 4%, the “Percentage” value (0.4 mg/mL (Table 3)) was found to be 36% and the “Percentage” value (10 mg/mL (Table 3)) turned out to be 87%.

Take `COc1ccc(O)c(OC)c1OC` [compound 1204, 2,3,4-trimethoxyphenol]: the pest or weed control at 1 % is over 90% and the pest or weed control at 0.04 % was over 75%. Further, the pest or weed control at 16 µg/mL (0.016 mg/mL (Table 3)) amounted to 46%. Moreover, under “0.4 mg/mL (Table 3)”, the pest or weed control at 400 µg/mL was 83%. Under “10 mg/mL (Table 3)”, the pest or weed control at 10000 µg/mL stood at 92%.

Consider `COc1ccc(C(C)=O)c(OC)c1OC` [compound 2269, 1-(2,3,4-trimethoxyphenyl)ethanone], for which the pest or weed control at 1 % is over 90% and the “mosquito landing within the two minutes of experiments” value was “protect the attractive stimulus for any mosquito landing”. For the setting “0.016 mg/mL (Table 3)”, the pest or weed control at 16 µg/mL came to 18%. For the same compound, where the note is “0.4 mg/mL (Table 3)”, the pest or weed control at 400 µg/mL was 70%. Also, the pest or weed control at 10000 µg/mL (10 mg/mL (Table 3)) was 100%.

On to `COc1cc(CO)cc(OC)c1OC` [compound 1968, (3,4,5-trimethoxyphenyl)methanol], for which the pest or weed control at 1 % was over 90% and the “mosquito landing within the two minutes of experiments” value is “protect the attractive stimulus for any mosquito landing”. The pest or weed control at 16 µg/mL (0.016 mg/mL (Table 3)) was 23%. Further, for the setting “0.4 mg/mL (Table 3)”, the pest or weed control at 400 µg/mL was 38%. Besides, the pest or weed control at 10000 µg/mL (10 mg/mL (Table 3)) stood at 100%.

`CCOc1cc(C=O)ccc1OC` [compound 2272, 3-ethoxy-4-methoxybenzaldehyde]: the pest or weed control at 0.04 % was over 75%. Also, the pest or weed control at 16 µg/mL (0.016 mg/mL (Table 3)) was determined as 0%. Moreover, the pest or weed control at 400 µg/mL (0.4 mg/mL (Table 3)) came out at 77%. Further, the pest or weed control at 10000 µg/mL (10 mg/mL (Table 3)) is 89%.

Turning to `COc1cc(C2CC=C(C)CO2)ccc1O` (stereo not shown) [compound 1478, 2-methoxy-4-(5-methyl-3,6-dihydro-2H-pyran-2-yl)phenol], the pest or weed control at 0.04 % was over 75%. Moreover, the pest or weed control at 16 µg/mL (0.016 mg/mL (Table 3)) came out at 0%. Also, where the note is “0.4 mg/mL (Table 3)”, the pest or weed control at 400 µg/mL stood at 76%. In addition, the pest or weed control at 10000 µg/mL (10 mg/mL (Table 3)) was 73%.
